Assay results: paper PMC12766724, “Synthesis, Anthelmintic Activity, and Mechanism of Action of 5‑Aryl‑1H‑indoles” (Journal of Agricultural and Food Chemistry, 2025)
Each block holds one compound with its values, some of them ahead of it.

Experiments:
[1] = tested on: Arabidopsis thaliana Col-0; assay: Germination rate and phytotoxicity; type: in vivo; conditions: for average fraction of germinated seeds: 5 DPS; for main root length / plant weight: 10 DPS
Experimental: Wild-type A. thaliana (Col-0 ecotype) seeds were sterilized with 70% EtOH with 0.1% Tween-20 solution (2 × 1 mL) for 10 min, rinsed with 96% EtOH (1 × 1 mL) for 10 min, and kept in the fridge (4 °C in the dark). Seeds were sown on a sterile 1/2 MS medium supplemented with 0.3% DMSO as a mock and test compounds at 5, 10, 50, and 100 μM concentrations in 0.3% DMSO. Plates were kept in long-day light conditions (22 °C/20 °C, 16 h light/8 h dark, 100 μmol m^–2 s^–1). After 5 days, the germination rate was evaluated. After an additional 5 days, primary root growth was measured with ImageJ software (https://imagej.nih.gov/ij/), and seedlings were weighted.

[2] = tested on: C. elegans N2 wild-type; assay: Chitinase assay (reproductive capacity); type: in vivo, Caenorhabditis elegans; conditions: Caenorhabditis elegans
Experimental: (§1) The effect of compounds on C. elegans was evaluated using the Chitinase assay as we described previously.
After exposing L1 larvae to the compounds for 4 days, we observed the populations under a microscope and measured the Chitinase activity. The larvae produce the enzyme while hatching, and its activity is indicative of the reproductive capacity of the worms. Populations that fail to reproduce due to acute or reproductive toxicity or developmental abnormalities are detected.

[3] = tested on: C. elegans ZZ15 lev-8(x15) X.; assay: Chitinase assay (reproductive capacity); type: in vivo; conditions: Caenorhabditis elegans; levamisole-resistant strain
Experimental: (§2) C. elegans strains used in this study were N2 (wild-type), levamisole-resistant strains ZZ15 (lev-8(x15) X) and […] (lev-1(e211) IV), ivermectin-resistant strain DA1316 (avr-14(ad1305) I; avr-15(vu227) glc-1(pk54) V), mebendazole-resistant strain […] (ben-1(e1880) III), and three strains with mutations in succinate dehydrogenase, RP2699, RP2700, and RP2702. The worms were cultivated on Nematode Growth Medium agar plates seeded with Escherichia coli OP50 in 20 °C according to the standard cultivation protocols. Strains RP2699, RP2700, and RP2702 were generated by Prof. Peter Roy’s group. All other strains and bacteria were purchased from the Caenorhabditis Genetics Center (CGC, Minneapolis, MN).
as §1
(§3) Lastly, strain DA1316 has mutations in three genes encoding subunits of the glutamate-gated chloride channel and is highly resistant to avermectins.

[4] = tested on: C. elegans DA1316 avr-14(ad1305) I; avr-15(vu227) glc-1(pk54) V.; assay: Chitinase assay (reproductive capacity); type: in vivo; conditions: Caenorhabditis elegans; ivermectin-resistant strain
Experimental: as §2, §1, §3

[5] = tested on: C. elegans CB211 lev-1(e211) IV.; assay: Chitinase assay (reproductive capacity); type: in vivo; conditions: Caenorhabditis elegans; levamisole-resistant strain
Experimental: as §2, §1, §3

[6] = tested on: C. elegans CB3474 ben-1(e1880) III.; assay: Chitinase assay (reproductive capacity); type: in vivo; conditions: Caenorhabditis elegans; mebendazole-resistant strain
Experimental: as §2, §1, §3

[7] = tested on: age unsynchronized Ditylenchus destructor; assay: Motility on WMicrotracker ONE; type: in vivo
Experimental: Populations of D. destructor, kindly provided by Central Institute for Supervising and Testing in Agriculture, the Ministry of Agriculture of the Czech Republic, were maintained according to the protocol previously described here.
(§4) The effect of compounds on motility of H. contortus, D. destructor, and H. schachtii was evaluated using the WMicrotracker ONE platform according to previously published protocols. ,
(§5) The instrument evaluates the activity of small animals by counting how many times infrared light microbeams passing through the wells of a microtiter plate are interrupted. In age-unsynchronized populations of D. destructor, we observed reduced motility of worm populations treated with the halogenated derivatives i-19, i-20, and i-21 (Figures A, S2.1A, S2.2A and Table S2.1). […] The decreases in mean activity counts after 72 h of treatment at 100 μM were 85% and 97%, respectively.

[8] = tested on: Skin fibroblasts (BJ); assay: Resazurin assay, 3-day treatment; type: cell-based, human; conditions: BJ
Experimental: Skin fibroblasts (BJ) were obtained from the American Type Culture Collection (ATCC, Manassas, VA), while human keratinocytes (HaCaT) were sourced from the German Cancer Research Center in Heidelberg, Germany. Cells were cultured in a standard DMEM medium from Sigma-Aldrich, supplemented with 10% fetal bovine serum, 2 mM glutamine, 100 U/mL penicillin, and 100 μg/mL streptomycin. Cultures were maintained under standard conditions (37 °C, 5% CO2, humidified atmosphere) and subcultured two to three times per week. We assessed the effect of 3-day compound treatments on cell viability using a resazurin reduction assay measuring mitochondrial activity. Approximately 5,000 cells in 80 μL of culture medium were seeded into the wells of a 96-well plate. Twenty-four hours later, 20 μL of 5-fold concentrated test compound solutions was added and tested across three concentrations prepared through 2-fold serial dilutions. The highest final concentration was 40 μM. After 72 h, we added an 11-fold concentrated resazurin solution to the wells, achieving a final concentration of 0.0125 μM. Fluorescence (ex = 570 nm, em = 610 nm) was measured after 3 h of incubation. […]

[9] = tested on: Heterodera schachtii second-stage juveniles (J2); assay: Motility on WMicrotracker ONE; type: in vivo
Experimental: H. schachtii was maintained on mustard (Sinapsis alba cv. Albatros) roots grown in vitro on modified KNOP medium according to the previously published protocols. ,
as §4, §5

[10] = tested on: human keratinocytes (HaCaT); assay: Resazurin assay, 3-day treatment; type: cell-based
Experimental: Skin fibroblasts (BJ) were obtained from the American Type Culture Collection (ATCC, Manassas, VA), while human keratinocytes (HaCaT) were sourced from the German Cancer Research Center in Heidelberg, Germany. Cells were cultured in a standard DMEM medium from Sigma-Aldrich, supplemented with 10% fetal bovine serum, 2 mM glutamine, 100 U/mL penicillin, and 100 μg/mL streptomycin. Cultures were maintained under standard conditions (37 °C, 5% CO2, humidified atmosphere) and subcultured two to three times per week. We assessed the effect of 3-day compound treatments on cell viability using a resazurin reduction assay measuring mitochondrial activity. Approximately 5,000 cells in 80 μL of culture medium were seeded into the wells of a 96-well plate. Twenty-four hours later, 20 μL of 5-fold concentrated test compound solutions was added and tested across three concentrations prepared through 2-fold serial dilutions. The highest final concentration was 40 μM. After 72 h, we added an 11-fold concentrated resazurin solution to the wells, achieving a final concentration of 0.0125 μM. Fluorescence (ex = 570 nm, em = 610 nm) was measured after 3 h of incubation.
The disubstituted derivatives i-25 and i-27 were the most toxic in the set, causing around a 50% decrease in viability of HaCaT cells at 40 μM.

[11] = tested on: C. elegans N2; assay: Scoring of developmental rates, L1 exposed 5 days; type: in vivo, Caenorhabditis elegans; design: key: 1 = dead/arrested at L1 … 5 = healthy, normal reproduction; conditions: 1 µM (control)
Excerpt: (§6) Dead or mostly immobile worms, arrested at the L1 stage, received a score of 1. Populations with severely delayed development were scored as 2. More developmentally advanced, but still obviously delayed worms were given the score of 3. Adult worms that produce a noticeably lower number of progeny received a score of 4. Healthy worms that reproduce normally (i.e., hundreds of eggs and larvae are present) were scored as 5 (see Figure C for representative images). In a typical, correctly prepared experiment, vehicle-treated populations should receive a score of 5, while worms treated with ivermectin (positive control) should receive a score of 1. […]

[12] = tested on: C. elegans complex II mutant RP2702; assay: Scoring of developmental rates, L1 exposed 5 days; type: in vivo, Caenorhabditis elegans; conditions: 1 µM (control)
Excerpt: as §6

[13] = tested on: C. elegans complex II mutant RP2699; assay: Scoring of developmental rates, L1 exposed 5 days; type: in vivo, Caenorhabditis elegans; conditions: 1 µM (control)
Excerpt: as §6

[14] = tested on: C. elegans complex II mutant RP2700; assay: Scoring of developmental rates, L1 exposed 5 days; type: in vivo, Caenorhabditis elegans; conditions: 1 µM (control)
Excerpt: as §6

[15] = 10 µM group, initial (prior to the treatment)
[16] = 50 µM group, initial (prior to the treatment)
[17] = 100 µM group, initial (prior to the treatment)
[18] = 10 mM group, initial (prior to the treatment)

IC50 [2]: 9.75 ± 1.65 µM | IC50 [3]: 8.83 ± 0.47 µM | IC50 [4]: 10.79 ± 0.08 µM | IC50 [5]: 9.85 ± 0.33 µM | IC50 [6]: 7.48 ± 0.06 µM
SMILES: CC(C)Oc1cc(-c2ccc3[nH]ccc3c2)ccc1Cl [i-27]
average fraction of germinated seeds ([1]; 5 µM): 0.94 | main root length ([1]; 5 µM): 39.90 mm | plant weight ([1]; 5 µM): 33.97 mg | average fraction of germinated seeds ([1]; 10 µM): 0.98 | main root length ([1]; 10 µM): 40.35 mm | plant weight ([1]; 10 µM): 35.66 mg | average fraction of germinated seeds ([1]; 50 µM): 0.95 | main root length ([1]; 50 µM): 37.27 mm | plant weight ([1]; 50 µM): 30.34 mg | average activity counts [7, 15]: 242 | average activity counts ([7]; 10 µM, 48 h): 235 | average activity counts ([7]; 10 µM, 72 h): 211 | average activity counts [7, 16]: 248 | average activity counts ([7]; 50 µM, 48 h): 227 | average activity counts ([7]; 50 µM, 72 h): 223 | average activity counts [7, 17]: 213 | average activity counts ([7]; 100 µM, 48 h): 207 | average activity counts ([7]; 100 µM, 72 h): 202 | Average viability (signal intensity relative to control) ([8]; 10 µM): 0.92 ± 0.02 | Average viability (signal intensity relative to control) ([8]; 20 µM): 0.92 ± 0.03 | Average viability (signal intensity relative to control) ([8]; 40 µM): 0.89 ± 0.03 | average activity counts [9, 15]: 169 | average activity counts ([9]; 10 µM, 48 h): 161 | average activity counts ([9]; 10 µM, 72 h): 167 | average activity counts [9, 16]: 189 | average activity counts ([9]; 50 µM, 48 h): 124 | average activity counts ([9]; 50 µM, 72 h): 113 | average activity counts [9, 17]: 169 | average activity counts ([9]; 100 µM, 48 h): 161 | average activity counts ([9]; 100 µM, 72 h): 111 | Average viability (signal intensity relative to control) ([10]; 10 µM): 0.78 ± 0.12 | Average viability (signal intensity relative to control) ([10]; 20 µM): 0.6 ± 0.19 | Average viability (signal intensity relative to control) ([10]; 40 µM): 0.48 ± 0.21 | decrease in viability ([10]; 40 µM): ~50%

IC50 [2]: 15.8 ± 1.78 µM
SMILES: COc1ccc(-c2ccc3[nH]ccc3c2)cc1 [i-7]

SMILES: [N-]=[N+]=[N-].[Na+] [NaN3, reference compound]
average activity counts [7, 18]: 223 | average activity counts ([7]; 10 mM, 48 h): 7 | average activity counts ([7]; 10 mM, 72 h): 2 | average activity counts [9, 18]: 182 | average activity counts ([9]; 10 mM, 48 h): 2 | average activity counts ([9]; 10 mM, 72 h): 2

SMILES: CC[C@H](C)[C@H]1O[C@]2(CC[C@@H]1C)C[C@@H]1C[C@@H](C/C=C(\C)[C@@H](O[C@H]3C[C@H](OC)[C@@H](O[C@H]4C[C@H](OC)[C@@H](O)[C@H](C)O4)[C@H](C)O3)[C@@H](C)/C=C/C=C3\CO[C@@H]4[C@H](O)C(C)=C[C@@H](C(=O)O1)[C@]34O)O2 [ivermectin, reference compound]
mean score (1-5) [11]: 1 | mean score (1-5) [12]: 1 | mean score (1-5) [13]: 1.333 | mean score (1-5) [14]: 1
